Test results reported in the supplement of paper PMC6045584.
± gives the standard deviation of the averaged measurements.

Legend:
[1] = compound: O=C(NOCC1CC1)c1ccc(F)c(F)c1Nc1ccc(I)cc1Cl; assay: surviving fraction relative to DMSO-only wells; higher = less growth inhibition; details: exposure time: 5 days
In short: (§1)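 In 384-well plates, 250–500 log-phase tumour cells per well were given 24 hours before five days of continuous exposure to inhibitors at 0.5, 1, 5, 10, 50, 100, 500 and 1000 nM. Surviving fraction is luminescence from CellTiter-Glo, normalised to the median of wells containing DMSO alone. Reading took place after 10 minutes at room temperature.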

PLX-4720 = compound: CCCS(=O)(=O)Nc1ccc(F)c(C(=O)c2c[nH]c3ncc(Cl)cc23)c1F [PLX-4720]; assay: as above; details: exposure time: 5 days
In short: as §1

| Test System | surviving fraction ([1]; 0.5 nM) | surviving fraction ([1]; 1 nM) | surviving fraction ([1]; 5 nM) | surviving fraction ([1]; 10 nM) | surviving fraction ([1]; 50 nM) | surviving fraction ([1]; 100 nM) | surviving fraction ([1]; 500 nM) | surviving fraction ([1]; 1000 nM) | surviving fraction (PLX-4720; 0.5 nM) | surviving fraction (PLX-4720; 1 nM) | surviving fraction (PLX-4720; 5 nM) | surviving fraction (PLX-4720; 10 nM) | surviving fraction (PLX-4720; 50 nM) | surviving fraction (PLX-4720; 100 nM) | surviving fraction (PLX-4720; 500 nM) | surviving fraction (PLX-4720; 1000 nM) |
| --- | --- | --- | --- | --- | --- | --- | --- | --- | --- | --- | --- | --- | --- | --- | --- | --- |
| HCC1806 BREAST | 1.04 ± 0.026 | 1.01 ± 0.098 | 1.09 ± 0.16 | 1.12 ± 0.079 | 1.1 ± 0.058 | 1.17 ± 0.048 | 0.761 ± 0.094 | 0.671 ± 0.022 | 0.727 ± 0.073 | 0.808 ± 0.067 | 0.861 ± 0.069 | 0.879 ± 0.042 | 0.858 ± 0.09 | 1.02 ± 0.052 | 0.855 ± 0.13 | 0.871 ± 0.076 |
| HCC1954 BREAST | 0.986 ± 0.081 | 1.13 ± 0.023 | 1.12 ± 0.027 | 1.05 ± 0.066 | 0.8718 ± 0.0032 | 0.805 ± 0.081 | 0.617 ± 0.041 | 0.566 ± 0.067 | 0.487 ± 0.0099 | 0.487 ± 0.028 | 0.455 ± 0.038 | 0.452 ± 0.053 | 0.55 ± 0.029 | 0.476 ± 0.027 | 0.466 ± 0.072 | 0.403 ± 0.0074 |
| HCT15 LARGE INTESTINE | 0.526 ± 0.042 | 0.912 ± 0.023 | 0.849 ± 0.05 | 0.936 ± 0.066 | 0.608 ± 0.037 | 0.914 ± 0.039 | 0.784 ± 0.0076 | 0.823 ± 0.05 | 0.419 ± 0.018 | 0.875 ± 0.043 | 0.755 ± 0.072 | 0.866 ± 0.029 | 0.513 ± 0.025 | 0.926 ± 0.046 | 0.886 ± 0.077 | 1.03 ± 0.026 |
| HELA CERVIX | 0.961 ± 0.057 | 1.01 ± 0.09 | 0.97 ± 0.07 | 0.964 ± 0.08 | 1.02 ± 0.012 | 1.08 ± 0.055 | 1.09 ± 0.077 | 1.12 ± 0.025 | 0.96 ± 0.039 | 0.947 ± 0.051 | 0.957 ± 0.069 | 0.953 ± 0.022 | 1 ± 0.046 | 1.01 ± 0.025 | 1 ± 0.055 | 1.06 ± 0.058 |
| HMLE3 BREAST | 0.845 ± 0.061 | 0.91 ± 0.028 | 0.922 ± 0.053 | 0.862 ± 0.017 | 0.733 ± 0.032 | 0.745 ± 0.048 | 0.525 ± 0.03 | 0.612 ± 0.001 | 0.225 ± 0.027 | 0.8523 ± 0.007 | 0.721 ± 0.039 | 0.851 ± 0.049 | 0.556 ± 0.041 | 1.03 ± 0.031 | 1.14 ± 0.036 | 1.15 ± 0.085 |
| HMT3552 BREAST | 1.11 | 1.12 | 1.01 | 1.08 | 1.02 | 0.941 | 0.92 | 0.843 | 1.04 | 0.993 | 1.01 | 0.978 | 1.23 | 1.17 | 1.11 | 1.1 |
| HOS BONE | 0.996 ± 0.015 | 1.01 ± 0.025 | 0.997 ± 0.014 | 1.01 ± 0.033 | 0.9843 ± 0.006 | 0.998 ± 0.018 | 0.951 ± 0.02 | 0.9593 ± 0.0051 | 0.92 ± 0.012 | 0.928 ± 0.014 | 0.935 ± 0.017 | 0.964 ± 0.0053 | 0.992 ± 0.015 | 0.995 ± 0.0027 | 0.96 ± 0.0078 | 1.01 ± 0.019 |
| HOSMNG BONE | 1 ± 0.092 | 0.992 ± 0.059 | 0.999 ± 0.082 | 1.01 ± 0.027 | 0.992 ± 0.12 | 1.02 ± 0.084 | 0.991 ± 0.1 | 1.06 ± 0.03 | 0.959 ± 0.026 | 0.962 ± 0.025 | 1 ± 0.061 | 0.985 ± 0.041 | 0.991 ± 0.16 | 1.04 ± 0.079 | 1 ± 0.12 | 1.03 ± 0.092 |
| HS57T BREAST | 0.909 ± 0.02 | 0.945 ± 0.022 | 0.933 ± 0.056 | 0.965 ± 0.033 | 0.824 ± 0.025 | 0.815 ± 0.013 | 0.676 ± 0.021 | 0.686 ± 0.019 | 0.9 ± 0.06 | 0.898 ± 0.057 | 0.947 ± 0.069 | 0.964 ± 0.065 | 0.921 ± 0.059 | 0.982 ± 0.03 | 0.92 ± 0.019 | 0.962 ± 0.054 |
| HS578T BREAST | 0.899 ± 0.029 | 0.913 ± 0.041 | 0.917 ± 0.076 | 1.09 ± 0.08 | 1.05 ± 0.08 | 0.892 ± 0.042 | 0.944 ± 0.041 | 0.936 ± 0.041 | 0.925 ± 0.054 | 0.912 ± 0.021 | 0.908 ± 0.1 | 0.809 ± 0.16 | 0.978 ± 0.13 | 0.92 ± 0.055 | 0.943 ± 0.058 | 0.789 ± 0.11 |
| HSSYII SYNOVIAL | 0.526 ± 0.017 | 0.847 ± 0.035 | 0.872 ± 0.041 | 0.928 ± 0.074 | 0.663 ± 0.059 | 0.807 ± 0.058 | 0.82 ± 0.038 | 0.821 ± 0.022 | 0.231 ± 0.018 | 0.844 ± 0.038 | 0.694 ± 0.065 | 0.838 ± 0.03 | 0.385 ± 0.0033 | 0.9 ± 0.026 | 0.827 ± 0.016 | 0.987 ± 0.046 |
| HT1080 SOFT TISSUE | 1.009 ± 0.0071 | 1.016 ± 0.01 | 1.01 ± 0.028 | 1.03 ± 0.029 | 1.08 ± 0.025 | 1.04 ± 0.039 | 0.741 ± 0.0079 | 0.617 ± 0.036 | 0.981 ± 0.049 | 0.994 ± 0.073 | 0.988 ± 0.025 | 0.989 ± 0.031 | 1.01 ± 0.038 | 0.979 ± 0.031 | 0.934 ± 0.042 | 0.885 ± 0.033 |
| HU09 BONE | 0.968 ± 0.024 | 1 ± 0.15 | 1.06 ± 0.073 | 1.06 ± 0.11 | 0.995 ± 0.1 | 1.03 ± 0.12 | 0.894 ± 0.044 | 0.905 ± 0.066 | 0.863 ± 0.032 | 0.959 ± 0.13 | 0.873 ± 0.013 | 0.941 ± 0.071 | 1.01 ± 0.07 | 0.946 ± 0.14 | 0.898 ± 0.11 | 1 ± 0.11 |
| JIMT1 BREAST | 0.957 ± 0.056 | 0.967 ± 0.039 | 0.997 ± 0.032 | 0.997 ± 0.02 | 0.955 ± 0.013 | 0.956 ± 0.017 | 0.8092 ± 0.0039 | 0.7653 ± 0.0068 | 0.857 ± 0.025 | 0.862 ± 0.042 | 0.894 ± 0.05 | 0.887 ± 0.046 | 0.966 ± 0.067 | 1.01 ± 0.06 | 0.947 ± 0.066 | 0.976 ± 0.037 |
| JURKAT HAEMATOPOIETIC AND LYMPHOID TISSUE | 1.03 ± 0.012 | 1.032 ± 0.0095 | 1.04 ± 0.016 | 1.02 ± 0.044 | 0.98 ± 0.011 | 1 ± 0.014 | 1.03 ± 0.013 | 0.994 ± 0.033 | 0.9917 ± 0.0087 | 0.964 ± 0.02 | 0.935 ± 0.026 | 0.972 ± 0.04 | 0.981 ± 0.026 | 0.996 ± 0.059 | 1.03 ± 0.02 | 1.06 ± 0.016 |
| KPD BONE | 1.17 ± 0.41 | 0.967 ± 0.047 | 1.032 ± 0.007 | 0.977 ± 0.037 | 0.986 ± 0.065 | 0.96 ± 0.032 | 0.968 ± 0.041 | 0.922 ± 0.055 | 0.917 ± 0.082 | 0.916 ± 0.017 | 0.973 ± 0.024 | 0.982 ± 0.011 | 1.01 ± 0.075 | 0.988 ± 0.075 | 0.932 ± 0.085 | 0.9813 ± 0.0098 |
| LM7 BONE | 0.983 ± 0.049 | 1.01 ± 0.041 | 1.1 ± 0.12 | 1 ± 0.024 | 1.02 ± 0.073 | 0.943 ± 0.1 | 0.821 ± 0.011 | 0.853 ± 0.089 | 0.725 ± 0.067 | 0.715 ± 0.026 | 0.809 ± 0.033 | 0.825 ± 0.03 | 0.884 ± 0.066 | 0.948 ± 0.069 | 0.871 ± 0.028 | 0.87 ± 0.031 |
| MCF7 BREAST | 0.843 ± 0.041 | 0.87 ± 0.035 | 0.848 ± 0.02 | 0.849 ± 0.028 | 0.874 ± 0.029 | 0.867 ± 0.045 | 0.849 ± 0.022 | 0.841 ± 0.06 | 0.746 ± 0.042 | 0.873 ± 0.059 | 0.831 ± 0.033 | 0.83 ± 0.035 | 0.83 ± 0.014 | 0.915 ± 0.022 | 0.851 ± 0.021 | 0.899 ± 0.048 |
| MDAMB134 BREAST | 0.871 ± 0.27 | 1.03 ± 0.16 | 0.933 ± 0.067 | 0.869 ± 0.075 | 0.809 ± 0.097 | 0.732 ± 0.11 | 0.556 ± 0.044 | 0.711 ± 0.15 | 0.624 ± 0.088 | 0.701 ± 0.076 | 0.715 ± 0.014 | 0.78 ± 0.25 | 0.754 ± 0.09 | 0.9355 ± 0.0021 | 0.726 ± 0.076 | 0.76 ± 0.054 |
| MDAMB157 BREAST | 0.877 ± 0.043 | 0.86 ± 0.12 | 0.929 ± 0.1 | 0.928 ± 0.069 | 0.85 ± 0.02 | 0.866 ± 0.037 | 0.787 ± 0.035 | 0.664 ± 0.013 | 0.848 ± 0.032 | 0.962 ± 0.069 | 0.958 ± 0.079 | 1 ± 0.093 | 0.914 ± 0.094 | 1.01 ± 0.027 | 0.868 ± 0.082 | 0.86 ± 0.039 |
| MDAMB231 BREAST | 0.963 ± 0.011 | 0.994 ± 0.035 | 1 ± 0.024 | 1.02 ± 0.032 | 0.969 ± 0.024 | 0.912 ± 0.022 | 0.65 ± 0.039 | 0.52 ± 0.02 | 0.936 ± 0.018 | 0.964 ± 0.017 | 0.969 ± 0.024 | 0.9755 ± 0.0065 | 1.01 ± 0.031 | 1.03 ± 0.012 | 1.01 ± 0.011 | 1.03 ± 0.038 |
